The values below come from patent US8716355B2, “Hydroxylated tolans and related compounds in the treatment of a cancer” (Kent State University, priority 2007, dated 2014).

Each structure is given as a SMILES string. “And” between values parts separate entries of the source, which are not always exact repeats. Identical values can stand only once.

One data set relates to WiDR. Description: MTT cytotoxicity, WiDR colon. It is filed as cell-based. The settings on record: Homo sapiens, 72 h, 3 Days, read-out: CD50 (μM) WiDR. How it is done:
(§1) Cell killing was evaluated using the colorimetric MTT assay. The assay measures the formation of a colored product from a chromogenic precursor, the tetrazole 3-[4,5-dimethylthiazol-2-yl]-2,5 diphenyltetrazolium bromide (MTT). The yellow MTT is reduced to purple formazan in the mitochondria of living cells. A solubilization solution (typically dimethyl sulfoxide or sodium dodecyl sulfate in dilute hydrochloric acid) is added to dissolve the insoluble purple formazan product into a colored solution. The absorbance of this colored solution is quantified by measuring at a certain wavelength (usually between 500 and 600 nm) by a spectrophotometer. The amount of purple formazan product generated is proportional to the number of viable cells (Mosmann, T., 1983, J. Immunol. Meth. 65:55-63; Wilson, A. P., Cytotoxicity and Viability Assays. In: Animal Cell Culture: A Practical Approach, 3rd ed. (Masters, J R W, ed.) Oxford University Press: Oxford, Vol. 1, pp. 175-219. 2000). This MTT assay is used widely to assess the cytotoxicity and selectivity of compounds such as anti-cancer drugs. The assay is suitable for rapid toxicity characterization of a test agent such as a drug formulation. […] A lower CD50 indicates a greater cytotoxic activity (as a lower amount of the agent is needed to achieve a fixed level of cytotoxicity). […]

Another data set has as its system MeWo. Description: MTT cytotoxicity, MeWo melanoma. It is filed as cell-based. Conditions: Homo sapiens, 72 h, 3 Days, read-out: CD50 (μM) MeWo. How it is done:
as §1

The target of a further data set is T1, ovine COX-1 (Ovis aries, UniProt P05979).
T1 construct: purchased Cayman Chemical 560131
Nature of the data set: COX Inhibitor Screening Assay, COX1. It is filed as biochemical. How it is done: The indicated concentration of these agents were tested in the presence of COX1. COX activity was quantified by measuring the amount of final product PGF2α which competed with acetylcholinesterase (AChE)-linked PGs for binding to its antibody immobilized to the surface of microplate wells. Color was developed by adding an AChE substrate and was inversely related to the amount of PGF2α±SD of triplicate determinations.
The prostanoid product can be quantified via enzyme immunoassay (EIA) using a broadly specific antibody that binds to all the major prostaglandin compounds. COX assays from Cayman Chemical, Ann Arbor, Mich., are more accurate and reliable than assays based on peroxidase inhibition. The Cayman COX Inhibitor Screening Assay includes both ovine COX-1 and human recombinant COX-2 enzymes in order to screen isozyme-specific inhibitors. This assay is an excellent tool which can be used for general inhibitor screening.
COX was assayed by measuring production of PGF2, generated by stannous chloride (SnCl2) in the presence of PGH2 using a commercial kit from Cayman Chemical, (Ovine COX Inhibitor Screening Assay, Catalog #560131). […]
A 96-well plate coated with mouse anti-rabbit IgG was then used and various components were added—assay standards, nonspecific binding controls, maximum binding controls, and the inhibitor dilutions—along with the tracer and antiserum. The plate was incubated at room temperature for 18 hours, washed five times with wash buffer, developed with Ellman's Reagent and the colored reaction product was read on an automatic microplate reader at 410 nm. The IC50 for the respective COX enzyme was graphically determined from a three-point curve. […]
The intensity of color was inversely proportional to the amount of free prostaglandins quantitatively representing the COX enzymatic activity, under the influence of the test compounds.
As noted, COX activity was quantified by measuring the amount of final product PGF2-α which competed with AChE-linked PGs for binding to an antibody immobilized to microplates. […]

The test system of the next data set is HT29. Description: MTT cytotoxicity, HT29 colon. It is filed as cell-based. Conditions: Homo sapiens, HT-29, 72 h; 3 Days; read-out: CD50 (μM) HT29. How it is done: as §1
The next data set concerns A375. Description: MTT cytotoxicity, A375 melanoma. It is filed as cell-based. The settings on record: Homo sapiens, A-375, 72 h; 3 Days; read-out: CD50 (μM) A375. How it is done: as §1
Another data set has as its system Mushroom tyrosinase. Description: Inhibition of mushroom tyrosinase activity. It is filed as biochemical. Conditions: concentration not given. How it is done: All chemical used for reagents were purchased from Sigma Chemical Company. KST201 at each tested concentration (1000, 250 and 100 μM) was dissolved in 10% ethanol from a master mixture of the drug prepared at 0.1M in 100% ethanol.
Mushroom tyrosinase (Sigma) was diluted in 50 mM phosphate buffer, pH 6.5 to yield a concentration of 16 U/μl. […] A master mix containing 0.5 mM L-DOPA [3,4-dihydroxy-1-phenylalanine], 10 mM Sodium L-tyrosine in 50 mM phosphate buffer, pH 6.5 was prepared. The KST-201 dilutions were preincubated with the enzyme for 20 minutes. The samples were pipetted into 24 well plates and the master mixture added quickly. The reaction was read using a kinetic format in which wells were read every 30 seconds over a course of 10 minutes at a wavelength of 475 nm using a Synergy HT Plate reader. A kinetic curve was generated for each sample compared to a total reaction with mushroom tyrosinase without a drug (total).

Data set [1] relates to normal human fibroblasts (MHRF). Description: MTT cytotoxicity, normal human fibroblasts. The settings on record: for CD50 against MHRF: MTT. It is filed as cell-based. How it is done: As a first step, the antitumor activity of the tolans was assessed against a panel of three cancer cells lines that produce solid tumors upon implantation into animals. DU145 is an androgen-independent prostate cancer cells. T24 is a transitional cell bladder carcinoma cell. MDAH2274 (“MDAH) is an endometroid ovarian adenocarcinoma cell. To assess the selectivity of this antitumor activity, the toxicity of the tolans to normal human fibroblasts (MHRF) was examined. Subsequently, studies with Tolan-3 (KST-201) were expanded to test its action on a wide range of tumor cell lines.
Cell killing was evaluated using the colorimetric MTT assay. The assay measures the formation of a colored product from a chromogenic precursor, the tetrazole 3-[4,5-dimethylthiazol-2-yl]-2,5 diphenyltetrazolium bromide (MTT). The yellow MTT is reduced to purple formazan in the mitochondria of living cells. A solubilization solution (typically dimethyl sulfoxide or sodium dodecyl sulfate in dilute hydrochloric acid) is added to dissolve the insoluble purple formazan product into a colored solution. The absorbance of this colored solution is quantified by measuring at a certain wavelength (usually between 500 and 600 nm) by a spectrophotometer. The amount of purple formazan product generated is proportional to the number of viable cells (Mosmann, T., 1983, J. Immunol. Meth. 65:55-63; Wilson, A. P., Cytotoxicity and Viability Assays. In: Animal Cell Culture: A Practical Approach, 3rd ed. (Masters, J R W, ed.) Oxford University Press: Oxford, Vol. 1, pp. 175-219. 2000). This MTT assay is used widely to assess the cytotoxicity and selectivity of compounds such as anti-cancer drugs. The assay is suitable for rapid toxicity characterization of a test agent such as a drug formulation. […] A lower CD50 indicates a greater cytotoxic activity (as a lower amount of the agent is needed to achieve a fixed level of cytotoxicity). Two agents can be compared by examining the fold-increase or decrease in their CD50 values.

T1 sequence (P05979 25-600): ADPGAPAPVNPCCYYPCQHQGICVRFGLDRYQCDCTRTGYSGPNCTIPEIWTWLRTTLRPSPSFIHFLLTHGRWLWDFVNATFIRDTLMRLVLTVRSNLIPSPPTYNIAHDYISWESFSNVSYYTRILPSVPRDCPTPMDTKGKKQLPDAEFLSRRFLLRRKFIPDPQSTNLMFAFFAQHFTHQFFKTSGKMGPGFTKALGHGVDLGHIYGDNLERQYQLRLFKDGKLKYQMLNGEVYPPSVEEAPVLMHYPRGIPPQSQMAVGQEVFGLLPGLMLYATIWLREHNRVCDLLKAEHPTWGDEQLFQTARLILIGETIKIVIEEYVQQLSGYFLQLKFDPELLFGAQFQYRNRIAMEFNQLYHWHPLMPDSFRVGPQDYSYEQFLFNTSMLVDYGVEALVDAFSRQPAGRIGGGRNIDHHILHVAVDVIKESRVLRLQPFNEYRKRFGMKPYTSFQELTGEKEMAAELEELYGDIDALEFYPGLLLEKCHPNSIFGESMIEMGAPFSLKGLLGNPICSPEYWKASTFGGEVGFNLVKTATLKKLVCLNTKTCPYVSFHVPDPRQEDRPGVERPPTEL

Regarding `Oc1ccc(C#Cc2ccc(O)cc2)cc1` [KST-201, 4,4′-dihydroxytolan], the IC50 in the data set on WiDR turned out to be 80 ± 0.9 µM; with MeWo it was 156 ± 2.5 µM; in the data set on HT29 it was 79 ± 0.8 µM; in the data set with A375 it was 4.6 ± 0.1 µM. Also, at ovine COX-1 (doses of 10 to 200 μM tested), the “Inhibition of COX1 activity” value is recorded as “about 50%”. In addition, the “% inhibition of mushroom tyrosinase activity” value in the data set on Mushroom tyrosinase was found to be 59.2±13%. Further, the “CD50 against MHRF” value is 194.1 ± 9.60 µM in data set [1] (2 days incubation); 153 µM and 153.2 ± 4.40 µM and 153 ± 4.4 µM in data set [1] (3 days incubation). The “Fold less toxic to normal fibroblasts than resveratrol” value in data set [1] (Table 15 vs Table 14) amounted to 3.5 fold.

Regarding `Oc1ccc(/C=C/c2cc(O)cc(O)c2)cc1` [Resveratrol, 3,5,4′-trihydroxy-trans-stilbene, reference compound], the IC50 in the data set on WiDR stood at 142 ± 6.4 µM; in the data set on MeWo, 185 ± 3.7 µM; in the data set on HT29, 163 ± 0.3 µM; in the data set with A375, 19 ± 0.2 µM. Besides, the COX1 enzymatic activity entry at ovine COX-1 (high end of 10 μM to 200 μM) was “complete inhibition”. Further, the “COX1 enzymatic activity, % of initial activity” value at ovine COX-1 (low end of 10 μM to 200 μM) was 5%. For the same compound, the “% inhibition of mushroom tyrosinase activity” value in the data set on Mushroom tyrosinase came out at 59.9±7.4%. The “CD50 against MHRF” value is 154.8 ± 16.5 µM in data set [1] (1 day incubation); 155 µM in data set [1] (1 day incubation, listed as resveratrol); 50.9 ± 0.6 µM in data set [1] (2 days incubation); 44.3 ± 3.0 µM and 47 ± 6.0 µM in data set [1] (3 days incubation); 44 µM in data set [1] (3 days incubation, listed as resveratrol).
